Experimental findings from patent publication US4587233A, “Use of Arg-Phe-amide derivatives” (Board of Trustees of the Leland Stanford Junior University, priority 1983, dated 1986) are described below.

Test [1] relates to Blood Pressure of Anesthetized Rats. In words: Blood pressure bioassay in urethane-anesthetized rats, peptides injected intravenously. Type of test: in vivo, male Sprague-Dawley rats. Set-up: key to Duration of blood pressure effect: +: short-lasting blood pressure elevation at all doses; ++: short-lasting blood pressure elevation at low doses; +++: long-lasting elevation at low doses. As to conditions: i.v.; for Maximal increase in blood pressure mm Hg diastolic / Maximal increase in blood pressure mm Hg systolic: over the dose-range tested (nmol/kg). The method, then:
Bioassays were conducted on male Sprague-Dawley rats, weighing 250-450 g, and anesthetized by an intraperitoneal injection of a 25 percent urethane solution (1.25 g/kg). The left femoral artery was cannulated with PE 50 polyethylene tubing for monitoring of blood pressure with a pressure transducer RP-1500 (Narco Biosystems). Injections of peptides or drugs were made via a PE 10 tubing into the left femoral vein. Respiration was measured by an impedance method by which the respiratory movements of the chest are registered. The method gives indirect information on respiration amplitude. Heart and respiration frequency were obtained by using biotachometer couplers which measure mean frequencies. Body temperature was measured in the rectum with a thermistor (Yellow Springs Instruments) and maintained between 36.5° and 37.5° C. Peptides or drugs were dissolved in sterile H2 O and the volumes injected intravenously were usually 0.1 ml and never exceeded 0.2 ml.

Test [2] concerns pressor activity of FMRF-NH2 in urethane-anesthetized rats. In words: Pressor activity of FMRF-NH2 after pretreatment with vasodepressor drugs and pharmacologic antagonists. The class given is in vivo. The settings on record: for Effect of drug pretreatment on pressor activity of FMRF-NH2: FMRF-NH2 challenge 16, 128, 512 nmol/kg i.v. 5-10 minutes after drug pretreatment; for Attenuation of the FMRFamide pressor effect: FMRF-NH2 challenge 16, 128, 512 nmol/kg i.v. after pretreatment with drugs interacting with the α-adrenergic system; for Effect of lower doses of drug on FMRFamide pressor effect: effective at blocking norepinephrine hydrochloride 3 to 15 μg/kg.

In test [3] the test system is pressor effects of angiotensin II, Arg^8 -vasopressin, norepinephrine hydrochloride. In words: Effectiveness of the antagonists against their respective pressor agonists. Type of test: in vivo, rats. The settings on record: for Blocking of the pressor effects of norepinephrine hydrochloride: lower doses of drug, norepinephrine hydrochloride 3 to 15 μg/kg.

Structures can show the parent of a compound that is named as a salt.

In the case of `N[C@@H](Cc1ccccc1)C(=O)O` [F-- OH, phenylalanine], in test [1], the “Pressor activity (blood pressure elevation), in words” value (“Pressor activity … in words” for short) is “Neither arginine nor phenylalanine nor phenylalanine-amide were active”; the “Maximal increase in blood pressure mm Hg diastolic” value stood at 0 mm Hg; the “Maximal increase in blood pressure mm Hg systolic” value is reported as 0 mm Hg.

As to `NC(=O)[C@@H](N)Cc1ccccc1` [F--NH2, phenylalanine-amide], in test [1], the “Pressor activity … in words” value is “Neither arginine nor phenylalanine nor phenylalanine-amide were active”; the “Maximal increase in blood pressure mm Hg diastolic” value was 0 mm Hg; the “Maximal increase in blood pressure mm Hg systolic” value is 0 mm Hg.

With `CC(COc1ccccc1)N(CCCl)Cc1ccccc1` (stereo not drawn) [Phenoxybenzamine hydrochloride], the “Effect of drug pretreatment on pressor activity of FMRF-NH2” value (“Effect of drug pretreatment” for short) in test [2] was “no effect”.

Take `N=C(N)NCCC[C@H](N)C(=O)O` [R--OH, arginine]: in test [1], the “Pressor activity … in words” value is listed as “Neither arginine nor phenylalanine nor phenylalanine-amide were active”; the “Maximal increase in blood pressure mm Hg diastolic” value is 0 mm Hg; the “Maximal increase in blood pressure mm Hg systolic” value worked out at 0 mm Hg.

On to `CN1[C@@H]2CC[C@H]1C[C@@H](OC(=O)C(CO)c1ccccc1)C2` (stereo partly drawn) [atropine], for which, in test [2], the “Effect of drug pretreatment” value is “did not modify”.

Regarding `Clc1cccc(Cl)c1N=C1NCCN1` [clonidine hydrochloride], the “Attenuation of the FMRFamide pressor effect” value (“Attenuation” for short) in test [2] is listed as 30-75%.

As for `CN1CCC(=C2c3ccccc3C=Cc3ccccc32)CC1` [cyproheptadine], in test [2], the “Effect of drug pretreatment” value is “did not modify”.

In the case of `CN1C[C@H](C(=O)N[C@]2(C)O[C@@]3(O)[C@@H]4CCCN4C(=O)[C@H](Cc4ccccc4)N3C2=O)C[C@@H]2c3cccc4[nH]cc(c34)C[C@H]21` [dihydroergotamine mesylate], in test [2], the “Attenuation” value is 30-75%.

In the case of `C[N+](C)(C)CCCCCC[N+](C)(C)C` [hexamethonium bromide], in test [2], the “Effect of drug pretreatment” value is recorded as “not blocked”.

As to `C=CCN1CC[C@]23c4c5ccc(O)c4O[C@H]2C(=O)CC[C@@]3(O)[C@H]1C5.Cl` [nalozone hydrochloride], the “Effect of drug pretreatment” value in test [2] is on record as “did not modify”.

`Cc1ccc(N(CC2=NCCN2)c2cccc(O)c2)cc1` [phentolamine hydrochloride]: in test [2], the “Attenuation” value is on record as 30-75% and the “Effect of lower doses of drug on FMRFamide pressor effect” value is “did not affect”. Moreover, the “Blocking of the pressor effects of norepinephrine hydrochloride” value in test [3] is given as “effective at blocking”.

Consider `CCCO` [propanol hydrochloride], for which the “Effect of drug pretreatment” value in test [2] is listed as “not blocked”.

Take `COC(=O)[C@H]1[C@H]2C[C@@H]3c4[nH]c5cc(OC)ccc5c4CCN3C[C@H]2C[C@@H](OC(=O)c2cc(OC)c(OC)c(OC)c2)[C@@H]1OC` [reserpine]: in test [2], the “Effect of drug pretreatment” value was “did not modify”.

Consider `CNCC(=O)N[C@@H](CCCN=C(N)N)C(=O)N[C@H](C(=O)N[C@@H](Cc1ccc(O)cc1)C(=O)N[C@H](C(=O)N[C@@H](Cc1cnc[nH]1)C(=O)N1CCC[C@H]1C(=O)N[C@@H](C)C(=O)O)C(C)C)C(C)C` [saralasin], for which the “Effect of drug pretreatment” value in test [2] was “not blocked”. Moreover, the “Antagonism of angiotensin II” value in test [3] (agonist angiotensin II 2 μg/kg) is given as “effective antagonists”.

With `c1ccc(CC2=NCCN2)cc1` [tolazoline hydrochloride], in test [2], the “Attenuation” value was 30-75% and the “Effect of lower doses of drug on FMRFamide pressor effect” value is reported as “did not affect”. Further, the “Blocking of the pressor effects of norepinephrine hydrochloride” value in test [3] was “effective at blocking”.

As for “(1-(β-mercapto-β,β-cyclopentamethylene propionic acid), 2-(0-methyl)tyrosine)Arg^8 -Vasopressin”, the “Effect of drug pretreatment” value in test [2] is “not blocked”. Besides, the “Antagonism of Arg^8 -vasopressin” value in test [3] (agonist Arg^8 -vasopressin 1 μg/kg) is on record as “effective antagonists”.

On to “gamma 1-melanotropic stimulating hormone [q MSH]”, for which, in test [1], the “Duration of blood pressure effect” value is “+++”; the “Pressor activity … in words” value was “exhibits pressor activity”; the “Maximal increase in blood pressure mm Hg diastolic” value is recorded as 70 mm Hg; the “Maximal increase in blood pressure mm Hg systolic” value is reported as 90 mm Hg.

As for nitroprusside, the “Effect of drug pretreatment” value in test [2] is listed as “did not modify”.
